What follows are compounds tested on A2780 cells (assay: In-vitro cell proliferation assay (SRB), A2780 cells). Details: Homo sapiens, A2780, 72 h, A2780 cells, 72 hours, SRB; read-out: A2780 IC50.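 Further: viable cell number read as SRB absorbance, background from media-only wells subtracted, IC50 interpolated from percent inhibition at two bracketing compound concentrations.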
Format: cell-based

Row | SMILES | IC50 [µM]
1 | O=C(NCc1cccnc1)Nc1ccc(C(=O)c2ccccc2)cc1 [1-(4-benzoylphenyl)-3-(pyridin-3-ylmethyl)urea] | 0.735
2 | NC(=O)C1CCN(S(=O)(=O)c2ccc(NC(=O)NCc3cccnc3)cc2)CC1 [1-[(4-{[(pyridin-3-ylmethyl)carbamoyl]amino}benzene)sulfonyl]piperidine-4-carboxamide] | 1.48
3 | O=C(NCCc1cccnc1)Nc1ccc(S(=O)(=O)N2CCCCC2)cc1 [3-[4-(piperidine-1-sulfonyl)phenyl]-1-[2-(pyridin-3-yl)ethyl]urea] | 0.661
4 | O=C(NCc1cccnc1)Nc1ccc(S(=O)(=O)c2ccc(-n3cccn3)c(F)c2)cc1 [3-(4-{[3-fluoro-4-(1H-pyrazol-1-yl)benzene]sulfonyl}phenyl)-1-(pyridin-3-ylmethyl)urea] | 0.054
5 | O=C(NCc1cccnc1)Nc1ccc(S(=O)(=O)N2CCCCCC2)cc1 [3-[4-(azepane-1-sulfonyl)phenyl]-1-(pyridin-3-ylmethyl)urea] | 0.139
6 | O=C(NCc1cccnc1)Nc1ccc(S(=O)(=O)N2CCC2)cc1 [3-[4-(azetidine-1-sulfonyl)phenyl]-1-(pyridin-3-ylmethyl)urea] | 1.62
7 | Cn1cc(S(=O)(=O)c2ccc(NC(=O)NCc3cccnc3)cc2)cn1 [3-[4-(1-methyl-1H-pyrazole-4-sulfonyl)phenyl]-1-(pyridin-3-ylmethyl)urea] | 0.247
8 | O=C(NCc1cccnc1)Nc1ccc(S(=O)(=O)c2ccccn2)cc1 [3-(pyridin-3-ylmethyl)-1-[4-(pyridine-2-sulfonyl)phenyl]urea] | 0.869
9 | O=C(NCc1cccnc1)Nc1ccc(S(=O)(=O)N2CCCCC2)cc1 [1-[4-(piperidine-1-sulfonyl)phenyl]-3-(pyridin-3-ylmethyl)urea] | 0.167
10 | C[C@@H]1[C@@H](NS(=O)(=O)c2ccc(NC(=O)NCc3cccnc3)cc2)C[C@H]2C[C@@H]1C2(C)C [3-(pyridin-3-ylmethyl)-1-(4-{[(1S,2S,3S,5R)-2,6,6-trimethylbicyclo[3.1.1]heptan-3-yl]sulfamoyl}phenyl)urea] | 0.096
11 | O=C(Nc1ccc(S(=O)(=O)c2ccccc2)cc1)Nc1cccnc1 [3-[4-(benzenesulfonyl)phenyl]-1-(pyridin-3-yl)urea] | 27.5
12 | O=C(NCc1cccnc1)Nc1ccc(S(=O)(=O)N2C3CCC2COC3)cc1 [1-(4-{3-oxa-8-azabicyclo[3.2.1]octane-8-sulfonyl}phenyl)-3-(pyridin-3-ylmethyl)urea] | 0.287
13 | Nc1cccc(CNC(=O)Nc2ccc(S(=O)(=O)c3ccccc3)cc2)c1 [1-[(3-aminophenyl)methyl]-3-[4-(benzenesulfonyl)phenyl]urea] | 2.54
14 | CN(C)c1ccc(CNC(=O)Nc2ccc(S(=O)(=O)c3ccccc3)cc2)cn1 [3-[4-(benzenesulfonyl)phenyl]-1-{[6-(dimethylamino)pyridin-3-yl]methyl}urea] | 27.6
15 | O=C(NCc1cccnc1)Nc1ccc(S(=O)(=O)N2CCOCC2)cc1 [1-[4-(morpholine-4-sulfonyl)phenyl]-3-(pyridin-3-ylmethyl)urea] | 1.35
16 | C[C@@H]1CN(S(=O)(=O)c2ccc(NC(=O)NCc3cccnc3)cc2)C[C@H](C)O1 [rel-3-{4-[(2R,6S)-2,6-dimethylmorpholine-4-sulfonyl]phenyl}-1-(pyridin-3-ylmethyl)urea] | 0.0135
17 | O=C(NCc1cccnc1)Nc1cccc(S(=O)(=O)N2CCCCC2)c1 [1-[3-(piperidine-1-sulfonyl)phenyl]-3-(pyridin-3-ylmethyl)urea] | > 30
18 | O=C(NCc1ccc(F)cc1)Nc1ccc(S(=O)(=O)N2CCCCC2)cc1 [1-[(4-fluorophenyl)methyl]-3-[4-(piperidine-1-sulfonyl)phenyl]urea] | 25
19 | CC1CCN(S(=O)(=O)c2ccc(NC(=O)NCc3cccnc3)cc2)CC1 [3-[4-(4-methylpiperidine-1-sulfonyl)phenyl]-1-(pyridin-3-ylmethyl)urea] | 0.254
20 | O=C(NCc1cccnc1)Nc1ccc(S(=O)(=O)N2CCCC2)cc1 [3-(pyridin-3-ylmethyl)-1-[4-(pyrrolidine-1-sulfonyl)phenyl]urea] | 1.4
21 | O=C(NCc1cc[nH]n1)Nc1ccc(S(=O)(=O)c2ccccc2)cc1 [1-[4-(benzenesulfonyl)phenyl]-3-(1H-pyrazol-3-ylmethyl)urea] | > 20

Next, values leading:

Row | IC50 [µM] | SMILES
22 | 2.26 | O=C(NCc1ccc(S(=O)(=O)N2CCCCC2)cc1)Nc1cccnc1 [3-{[4-(piperidine-1-sulfonyl)phenyl]methyl}-1-(pyridin-3-yl)urea]
23 | > 30 | O=C(NCc1cccc(F)c1)Nc1ccc(S(=O)(=O)N2CCCCC2)cc1 [3-[(3-fluorophenyl)methyl]-1-[4-(piperidine-1-sulfonyl)phenyl]urea]
24 | 0.752 | O=C(NCc1cncc(F)c1)Nc1ccc(S(=O)(=O)N2CCCCC2)cc1 [3-[(5-fluoropyridin-3-yl)methyl]-1-[4-(piperidine-1-sulfonyl)phenyl]urea]
25 | 0.547 | O=C(NCc1ccc(S(=O)(=O)N2CCCCC2)cc1)NCc1cccnc1 [3-{[4-(piperidine-1-sulfonyl)phenyl]methyl}-1-(pyridin-3-ylmethyl)urea]
26 | 0.105 | C[C@H]1CCCN(S(=O)(=O)c2ccc(NC(=O)NCc3cccnc3)cc2)C1 [3-{4-[(3S)-3-methylpiperidine-1-sulfonyl]phenyl}-1-(pyridin-3-ylmethyl)urea]
27 | > 30 | O=C(NCc1ccccc1)Nc1ccc(S(=O)(=O)N2CCCCC2)cc1 [3-benzyl-1-[4-(piperidine-1-sulfonyl)phenyl]urea]
28 | > 30 | O=C(NCc1ccccc1F)Nc1ccc(S(=O)(=O)N2CCCCC2)cc1 [3-[(2-fluorophenyl)methyl]-1-[4-(piperidine-1-sulfonyl)phenyl]urea]

Same assay, conditions: Homo sapiens, A2780, 72 h, read-out: A2780 IC50

Row | SMILES | IC50 [µM]
29 | Nc1ccc(CNC(=O)Nc2ccc(S(=O)(=O)c3ccccc3)cc2)cn1 [1-[(6-aminopyridin-3-yl)methyl]-3-[4-(benzenesulfonyl)phenyl]urea] | 0.081

These compounds were tested against NAMPT (Homo sapiens (Human), UniProt P43490) (assay: NAMPT biochemical inhibition assay (NMN quantified by mass spectrometry)). Details: NAMPT biochemical inhibition; read-out: Biochem IC50.
Sequence of NAMPT (P43490 whole entry): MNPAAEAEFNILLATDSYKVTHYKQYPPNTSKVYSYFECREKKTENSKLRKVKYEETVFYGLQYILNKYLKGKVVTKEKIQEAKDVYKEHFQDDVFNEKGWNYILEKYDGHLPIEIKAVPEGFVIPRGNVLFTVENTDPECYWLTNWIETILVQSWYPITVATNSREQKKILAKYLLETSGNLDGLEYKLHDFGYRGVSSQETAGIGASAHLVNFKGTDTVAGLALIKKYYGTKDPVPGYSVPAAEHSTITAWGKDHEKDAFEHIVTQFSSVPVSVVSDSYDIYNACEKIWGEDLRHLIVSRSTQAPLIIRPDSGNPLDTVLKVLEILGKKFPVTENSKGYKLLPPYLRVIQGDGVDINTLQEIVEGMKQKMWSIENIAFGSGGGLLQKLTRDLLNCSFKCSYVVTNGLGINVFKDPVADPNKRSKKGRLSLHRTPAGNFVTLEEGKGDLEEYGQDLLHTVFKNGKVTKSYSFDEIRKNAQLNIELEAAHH

Row | IC50 [µM] | SMILES
30 | 0.007 | CC(C)CN(C)S(=O)(=O)c1ccc(NC(=O)NCc2cccnc2)cc1 [3-{4-[methyl(2-methylpropyl)sulfamoyl]phenyl}-1-(pyridin-3-ylmethyl)urea]
31 | 0.008 | O=C(NCc1cccnc1)Nc1ccc(S(=O)(=O)Nc2ccccc2F)cc1 [3-{4-[(2-fluorophenyl)sulfamoyl]phenyl}-1-(pyridin-3-ylmethyl)urea]
32 | 0.01 | Cc1cccc(NS(=O)(=O)c2ccc(NC(=O)NCc3cccnc3)cc2)c1 [3-{4-[(3-methylphenyl)sulfamoyl]phenyl}-1-(pyridin-3-ylmethyl)urea]
33 | 0.007 | CCc1ccc(NS(=O)(=O)c2ccc(NC(=O)NCc3cccnc3)cc2)cc1 [3-{4-[(4-ethylphenyl)sulfamoyl]phenyl}-1-(pyridin-3-ylmethyl)urea]
34 | 0.003 | O=C(NCc1cccnc1)Nc1ccc(S(=O)(=O)N2CCC(c3ccccc3)CC2)cc1 [1-[4-(4-phenylpiperidine-1-sulfonyl)phenyl]-3-(pyridin-3-ylmethyl)urea]
35 | 0.001 | O=C(NCc1cccnc1)Nc1ccc(S(=O)(=O)Nc2cccc(Cl)c2)cc1 [3-{4-[(3-chlorophenyl)sulfamoyl]phenyl]-1-(pyridin-3-ylmethyl)urea]
36 | 0.003 | O=C(NCc1cccnc1)Nc1ccc(S(=O)(=O)Nc2cccc(Br)c2)cc1 [3-{4-[(3-bromophenyl)sulfamoyl]phenyl}-1-(pyridin-3-ylmethyl)urea]

— US11279687B2, “Compounds and compositions for the inhibition of NAMPT” (Valo Health, Inc., priority 2010, dated 2022)
